In the supplement of paper PMC10307832:

Experiments:
Assay in all cases: relative viability (nuclei count vs DMSO), 5 days (fraction); higher = more cells survive
Alpelisib + Phenformin = compound: Cc1nc(NC(=O)N2CCC[C@H]2C(N)=O)sc1-c1ccnc(C(C)(C)C(F)(F)F)c1 [Alpelisib] + N=C(N)NC(=N)NCCc1ccccc1 [Phenformin] (partner 250 µM)
How it was run: (§1)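 Values are medians from duplicate plates. Each reflects relative viability, defined as the nuclei count of treated wells over that of vehicle wells. Lung cancer cell lines in 1536-well plates were pin-tool dosed one day after seeding with one drug alone or with a fixed anchor-drug dose plus five library-drug doses (not always all listed) in √10 steps, then fixed, stained and imaged at 4× after 5 days.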

Vemurafenib + Dasatinib = compound: CCCS(=O)(=O)Nc1ccc(F)c(C(=O)c2c[nH]c3ncc(-c4ccc(Cl)cc4)cc23)c1F [Vemurafenib] + Cc1nc(Nc2ncc(C(=O)Nc3c(C)cccc3Cl)s2)cc(N2CCN(CCO)CC2)n1 [Dasatinib] (partner 0.075 µM)
How it was run: as §1

OSI-027 + Vorinostat = compound: COc1cccc2cc(-c3nc([C@H]4CC[C@H](C(=O)O)CC4)n4ncnc(N)c34)[nH]c12 [OSI-027] + O=C(CCCCCCC(=O)Nc1ccccc1)NO [Vorinostat] (partner 1 µM)
How it was run: as §1

OSI-027 + Crizotinib = compound: COc1cccc2cc(-c3nc([C@H]4CC[C@H](C(=O)O)CC4)n4ncnc(N)c34)[nH]c12 [OSI-027] + C[C@@H](Oc1cc(-c2cnn(C3CCNCC3)c2)cnc1N)c1c(Cl)ccc(F)c1Cl [Crizotinib] (partner 1 µM)
How it was run: as §1

Cell Line	relative viability (Alpelisib + Phenformin; first compound 0.04 µM)	relative viability (Alpelisib + Phenformin; first compound 0.1265 µM)	relative viability (Alpelisib + Phenformin; first compound 0.4 µM)	relative viability (Alpelisib + Phenformin; first compound 1.265 µM)	relative viability (Alpelisib + Phenformin; first compound 4 µM)	relative viability (Vemurafenib + Dasatinib; first compound 0.03162 µM)	relative viability (Vemurafenib + Dasatinib; first compound 0.1 µM)	relative viability (Vemurafenib + Dasatinib; first compound 0.3162 µM)	relative viability (Vemurafenib + Dasatinib; first compound 1 µM)	relative viability (OSI-027 + Vorinostat; first compound 0.01 µM)	relative viability (OSI-027 + Vorinostat; first compound 0.03162 µM)	relative viability (OSI-027 + Vorinostat; first compound 0.1 µM)	relative viability (OSI-027 + Vorinostat; first compound 0.3162 µM)	relative viability (OSI-027 + Vorinostat; first compound 1 µM)	relative viability (OSI-027 + Crizotinib; first compound 0.01 µM)	relative viability (OSI-027 + Crizotinib; first compound 0.03162 µM)	relative viability (OSI-027 + Crizotinib; first compound 0.1 µM)	relative viability (OSI-027 + Crizotinib; first compound 0.3162 µM)	relative viability (OSI-027 + Crizotinib; first compound 1 µM)
NCI-H2342	0.606	0.587	0.559	0.519	0.439	0.313	0.304	0.266	0.326	0.715	0.611	0.683	0.768	0.547					
SW 1573	0.306	0.335	0.272	0.217	0.257	0.567	0.428	0.36	0.347	0.818	0.718	0.669	0.728	0.393	0.855	0.832	0.687	0.655	0.566
NCI-H1792	0.593	0.262	0.291	0.0902	0.0842	0.84	0.733		0.815						1.06	0.617	1.01	0.902	0.199
LOU-NH91	0.668	0.58	0.648	0.525	0.472	0.509			0.572	0.858	0.913	0.69	0.712	0.479	0.73	0.726	0.693	0.681	0.508
LC-2-ad	0.603	0.549	0.586	0.338	0.427	0.592	0.669		0.559	0.718	0.703	0.758	0.854	0.549	0.49	0.483	0.458	0.474	0.384
HOP-62	0.642	0.611	0.761	0.561	0.633	0.535	0.549	0.292	0.66	0.586	0.662	0.53	0.546	0.296	1.02	0.922	0.999	1.36	0.428
NCI-H650	0.469	0.429	0.534	0.349	0.369	0.392	0.52		0.395	0.495	0.479	0.325	0.303	0.232	0.733	0.583	0.582	0.469	0.336
NCI-H1651	0.369	0.3	0.33	0.295	0.275	0.417	0.462	0.277	0.452	0.57	0.482	0.509	0.528	0.469	0.878	0.801	0.841	0.816	0.635
CAL-12T	0.545	0.593	0.699	0.543	0.494	0.42	0.266	0.454	0.374	1.06	0.585	0.68	0.535	0.321	0.567	0.568	0.62	0.718	0.487
LK-2	0.4	0.233	0.213	0.226	0.161	0.306	0.306	0.33	0.223	0.272	0.296	0.244	0.176	0.179	0.199	0.229	0.273	0.242	0.203
EKVX	0.234	0.229	0.253	0.225	0.192	0.51		0.661	0.515	0.661	0.618	0.649	0.561	0.4	0.92	0.816	1.03	0.822	0.513
EMC-BAC-2	0.539	0.482	0.498	0.44	0.34	0.175	0.28	0.209	0.337	0.333	0.498	0.299	0.236	0.277	0.752	0.786	0.737	0.683	0.416
NCI-H520	0.55	0.439	0.417	0.316	0.311	0.188	0.189	0.203	0.197	0.729	0.712	0.693	0.557	0.368	0.813	0.848	0.876	0.424	0.286
NCI-H322M	0.74	0.674	0.736	0.558	0.55	0.241			0.229	0.869	0.863	0.748	0.663	0.624	0.86	0.929	0.951	0.947	0.775
COR-L 105	0.446	0.593	0.669	0.416	0.415	0.317			0.316	0.552	0.727	0.879	0.617	0.605	0.754	0.741	0.766	0.894	0.415
NCI-H2170	0.466	0.384	0.438	0.45	0.387	0.523	0.214	0.639	0.54	0.779	0.814	0.806	0.662	0.454	1.31	1.07	0.986	1.1	0.552
NCI-H358	0.309	0.321	0.338	0.242	0.16	0.142	0.116	0.22	0.203	0.751	0.653	0.717	0.664	0.503	0.566	0.509	0.552	0.704	0.348
NCI-H1793	0.365	0.322	0.365	0.301	0.238	0.415		0.237	0.307	0.713	0.777	0.444	0.377	0.281					
